Laboratory results taken from patent US20250214976A1, “GPR35 MODULATORS AND USES THEREOF” (Crossignal Therapeutics, Inc., priority 2022, published 2025).

target: T1, human GPR35 (Homo sapiens, UniProt Q9HC97); test: Luciferase Reporter Assay (YAP responsive element) in HEK293 cells stably transfected with human GPR35; format: cell-based; conditions: overnight incubation
T1 construct: expressed in transfected cells; host or cells: HEK293
Procedure: HEK293 cells stably transfected with human GPR35 were maintained in Dulbecco's Modified Eagle Medium (DMEM) supplemented with 10% FBS and 300 μg/mL Zeocin and 200 μg/mL Hygromycin at 37° C., 10% CO2. On Day 1, cells were plated in poly-D-lysine coated 96-well tissue culture plate in regular growth medium (DMEM/10% FBS/300 μg/mL Zeocin/200 μg/mL Hygromycin. On the next day, luciferase reporter plasmid DNA with YAP responsive element was transfected into cells using lipofectamine 2000 (Invitrogen) following manufacture's protocol. After transfection for 6 hr., cells were treated with testing compounds in fasting DMEM medium (phenol red free, FBS free) at varying compound concentrations ranging from 10 μM to […] in a 3-fold serial diluted fashion. After an overnight incubation, the luciferase activities were measured with SteadyLite Plus Kit (PerkinElmer) according to manufacturer's protocol. IC50 was determined by fitting the dose-response data to a four-parameter logistic curve using GraphPad Prism.
The symbol “+” indicates IC50 is greater than […]. “++” indicates IC50>100 nM but ≤[…]. “+++” indicates IC50≤100 nM.

T1 sequence (Q9HC97 whole entry): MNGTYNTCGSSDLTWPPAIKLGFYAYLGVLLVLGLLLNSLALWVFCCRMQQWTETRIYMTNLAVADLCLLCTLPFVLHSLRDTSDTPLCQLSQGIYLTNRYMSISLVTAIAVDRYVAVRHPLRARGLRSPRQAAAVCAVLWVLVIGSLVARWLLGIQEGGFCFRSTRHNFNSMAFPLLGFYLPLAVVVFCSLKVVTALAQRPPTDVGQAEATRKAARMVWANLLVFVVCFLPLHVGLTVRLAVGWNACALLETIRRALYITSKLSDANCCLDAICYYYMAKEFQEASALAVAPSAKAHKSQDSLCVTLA

Row | SMILES | IC50 [nM]
1 | O=C(Nc1ccc(OCc2ccc(F)cc2Cl)cc1)c1coc2cc(-c3noc(=O)[nH]3)c(F)cc12 [Compound 1-24, N-(4-((2-chloro-4-fluorobenzyl)oxy)phenyl)-5-fluoro-6-(5-oxo-4,5-dihydro-1,2,4-oxadiazol-3-yl)benzofuran-3-carboxamide] | ≤ 100
2 | O=C(Nc1ccc(OC2CC(F)(F)C2)c(F)c1)c1coc2cc(-c3nnn[nH]3)c(F)cc12 [Compound 1-27, N-(4-(3,3-difluorocyclobutoxy)-3-fluorophenyl)-5-fluoro-6-(1H-tetrazol-5-yl)benzofuran-3-carboxamide] | 100 to 1000
3 | O=C(Nc1ccc(OC2COC2)c(F)c1)c1coc2cc(-c3nnn[nH]3)c(F)cc12 [Compound 1-28, 5-fluoro-N-(3-fluoro-4-(oxetan-3-yloxy)phenyl)-6-(1H-tetrazol-5-yl)benzofuran-3-carboxamide] | 100 to 1000
4 | O=C(Nc1ccc(OCc2ccc(F)cc2Cl)cc1)c1coc2cc(Oc3nnn[nH]3)ccc12 [Compound 1-29, 6-((1H-tetrazol-5-yl)oxy)-N-(4-((2-chloro-4-fluorobenzyl)oxy)phenyl)benzofuran-3-carboxamide] | > 1000
5 | O=C(Nc1ccc(N2CCC[C@H]2C(F)(F)F)c(F)c1)c1coc2cc(-c3nnn[nH]3)c(F)cc12 [Compound 1-32, (S)-5-fluoro-N-(3-fluoro-4-(2-(trifluoromethyl)pyrrolidin-1-yl)phenyl)-6-(1H-tetrazol-5-yl)benzofuran-3-carboxamide] | 100 to 1000
6 | O=C(Nc1ccc(N2CCC[C@@H]2C(F)(F)F)c(F)c1)c1coc2cc(-c3nnn[nH]3)c(F)cc12 [Compound 1-33, (R)-5-fluoro-N-(3-fluoro-4-(2-(trifluoromethyl)pyrrolidin-1-yl)phenyl)-6-(1H-tetrazol-5-yl)benzofuran-3-carboxamide] | 100 to 1000
7 | O=C(Nc1ccc(N2CCC(F)(F)C2)c(F)c1)c1coc2cc(-c3nnn[nH]3)c(F)cc12 [Compound 1-34, N-(4-(3,3-difluoropyrrolidin-1-yl)-3-fluorophenyl)-5-fluoro-6-(1H-tetrazol-5-yl)benzofuran-3-carboxamide] | ≤ 100
8 | O=C(Nc1ccc(OC(CF)CF)c(F)c1)c1coc2cc(-c3nnn[nH]3)c(F)cc12 [Compound 1-35, N-(4-((1,3-difluoropropan-2-yl)oxy)-3-fluorophenyl)-5-fluoro-6-(1H-tetrazol-5-yl)benzofuran-3-carboxamide] | 100 to 1000
9 | O=C(Nc1ccc(OCc2ccc(F)cc2Cl)cc1)c1coc2cc(Oc3nnn[nH]3)c(F)cc12 [Compound 1-39, 6-((1H-tetrazol-5-yl)oxy)-N-(4-((2-chloro-4-fluorobenzyl)oxy)phenyl)-5-fluorobenzofuran-3-carboxamide] | 100 to 1000
10 | O=C(Nc1ccc(Oc2ccc(F)cc2Cl)cc1)c1coc2cc(-c3nnn[nH]3)c(F)cc12 [Compound 1-40, N-(4-(2-chloro-4-fluorophenoxy)phenyl)-5-fluoro-6-(1H-tetrazol-5-yl)benzofuran-3-carboxamide] | 100 to 1000
11 | O=C(Nc1ccc(OCc2ccc(Cl)cc2F)cc1)c1coc2cc(-c3nnn[nH]3)c(F)cc12 [Compound 1-41, N-(4-((4-chloro-2-fluorobenzyl)oxy)phenyl)-5-fluoro-6-(1H-tetrazol-5-yl)benzofuran-3-carboxamide] | ≤ 100
12 | O=C(Nc1ccc(N2CC3C(C2)C3(F)F)c(F)c1)c1coc2cc(-c3nnn[nH]3)c(F)cc12 (stereo not shown) [Compound 1-42, N-(4-(6,6-difluoro-3-azabicyclo[3.1.0]hexan-3-yl)-3-fluorophenyl)-5-fluoro-6-(1H-tetrazol-5-yl)benzofuran-3-carboxamide] | 100 to 1000
13 | O=C(Nc1ccc(OCc2ccc(F)c(Cl)c2)cc1)c1coc2cc(-c3nnn[nH]3)c(F)cc12 [Compound 1-43, N-(4-((3-chloro-4-fluorobenzyl)oxy)phenyl)-5-fluoro-6-(1H-tetrazol-5-yl)benzofuran-3-carboxamide] | ≤ 100
14 | O=C(Nc1ccc(OCc2cccc(F)c2Cl)cc1)c1coc2cc(-c3nnn[nH]3)c(F)cc12 [Compound 1-44, N-(4-((2-chloro-3-fluorobenzyl)oxy)phenyl)-5-fluoro-6-(1H-tetrazol-5-yl)benzofuran-3-carboxamide] | 100 to 1000
15 | O=C(Nc1ccc(OCc2cc(F)cc(Cl)c2)cc1)c1coc2cc(-c3nnn[nH]3)c(F)cc12 [Compound 1-45, N-(4-((3-chloro-5-fluorobenzyl)oxy)phenyl)-5-fluoro-6-(1H-tetrazol-5-yl)benzofuran-3-carboxamide] | 100 to 1000
16 | N#Cc1ccc(COc2ccc(NC(=O)c3coc4cc(-c5nnn[nH]5)c(F)cc34)cc2)c(Cl)c1 [Compound 1-46, N-(4-((2-chloro-4-cyanobenzyl)oxy)phenyl)-5-fluoro-6-(1H-tetrazol-5-yl)benzofuran-3-carboxamide] | 100 to 1000
17 | O=C(Nc1ccc(OCc2ccc(F)cn2)cc1)c1coc2cc(-c3nnn[nH]3)c(F)cc12 [Compound 1-47, 5-fluoro-N-(4-((5-fluoropyridin-2-yl)methoxy)phenyl)-6-(1H-tetrazol-5-yl)benzofuran-3-carboxamide] | 100 to 1000
18 | N#Cc1cc(F)ccc1COc1ccc(NC(=O)c2coc3cc(-c4nnn[nH]4)c(F)cc23)cc1 [Compound 1-48, N-(4-((2-cyano-4-fluorobenzyl)oxy)phenyl)-5-fluoro-6-(1H-tetrazol-5-yl)benzofuran-3-carboxamide] | 100 to 1000
19 | O=C(Nc1ccc(OCc2ccc(Cl)c(F)c2)cc1)c1coc2cc(-c3nnn[nH]3)c(F)cc12 [Compound 1-49, N-(4-((4-chloro-3-fluorobenzyl)oxy)phenyl)-5-fluoro-6-(1H-tetrazol-5-yl)benzofuran-3-carboxamide] | ≤ 100
20 | O=C(Nc1ccc(OCc2cc(F)c(F)cc2Cl)cc1)c1coc2cc(-c3nnn[nH]3)c(F)cc12 [Compound 1-50, N-(4-((2-chloro-4,5-difluorobenzyl)oxy)phenyl)-5-fluoro-6-(1H-tetrazol-5-yl)benzofuran-3-carboxamide] | 100 to 1000
21 | O=C(Nc1ccc(OCc2ccc(Cl)cn2)cc1)c1coc2cc(-c3nnn[nH]3)c(F)cc12 [Compound 1-51, N-(4-((5-chloropyridin-2-yl)methoxy)phenyl)-5-fluoro-6-(1H-tetrazol-5-yl)benzofuran-3-carboxamide] | ≤ 100
22 | N#Cc1cc(Cl)ccc1COc1ccc(NC(=O)c2coc3cc(-c4nnn[nH]4)c(F)cc23)cc1 [Compound 1-52, N-(4-((4-chloro-2-cyanobenzyl)oxy)phenyl)-5-fluoro-6-(1H-tetrazol-5-yl)benzofuran-3-carboxamide] | 100 to 1000
23 | O=C(Nc1ccc(OCc2cc(F)c(Cl)c(F)c2)cc1)c1coc2cc(-c3nnn[nH]3)c(F)cc12 [Compound 1-53, N-(4-((4-chloro-3,5-difluorobenzyl)oxy)phenyl)-5-fluoro-6-(1H-tetrazol-5-yl)benzofuran-3-carboxamide] | ≤ 100
24 | O=C(Nc1ccc(OCc2c(F)cc(Cl)cc2F)cc1)c1coc2cc(-c3nnn[nH]3)c(F)cc12 [Compound 1-54, N-(4-((4-chloro-2,6-difluorobenzyl)oxy)phenyl)-5-fluoro-6-(1H-tetrazol-5-yl)benzofuran-3-carboxamide] | 100 to 1000
25 | O=C(Nc1ccc(OCc2cc(F)c(Cl)cc2F)cc1)c1coc2cc(-c3nnn[nH]3)c(F)cc12 [Compound 1-55, N-(4-((4-chloro-2,5-difluorobenzyl)oxy)phenyl)-5-fluoro-6-(1H-tetrazol-5-yl)benzofuran-3-carboxamide] | 100 to 1000
26 | O=C(Nc1ccc(OCc2cc(Cl)cs2)cc1)c1coc2cc(-c3nnn[nH]3)c(F)cc12 [Compound 1-56, N-(4-((4-chlorothiophen-2-yl)methoxy)phenyl)-5-fluoro-6-(1H-tetrazol-5-yl)benzofuran-3-carboxamide] | ≤ 100
27 | O=C(Nc1ccc(OCc2cc(Cl)c(Cl)s2)cc1)c1coc2cc(-c3nnn[nH]3)c(F)cc12 [Compound 1-57, N-(4-((4,5-dichlorothiophen-2-yl)methoxy)phenyl)-5-fluoro-6-(1H-tetrazol-5-yl)benzofuran-3-carboxamide] | 100 to 1000
28 | O=C(Nc1ccc(C2CCCC2)c(F)c1)c1csc2cc(-c3nnn[nH]3)ccc12 [Compound 1-58, N-(4-cyclopentyl-3-fluorophenyl)-6-(1H-tetrazol-5-yl)benzo[b]thiophene-3-carboxamide] | ≤ 100
